We go through 33 compounds from patent US20160075689A1, “POLYMERASE, ENDONUCLEASE, AND HELICASE INHIBITORS AND METHODS OF USING THEREOF” (THE BOARD OF TRUSTEES OF THE UNIVERSITY OF ARKANSAS, priority 2013, published 2016).

Molecules are shown by their SMILES.

The target of the first assay is T1, EndoG (Homo sapiens, UniProt Q14249).
T1 sequence (Q14249 49-297): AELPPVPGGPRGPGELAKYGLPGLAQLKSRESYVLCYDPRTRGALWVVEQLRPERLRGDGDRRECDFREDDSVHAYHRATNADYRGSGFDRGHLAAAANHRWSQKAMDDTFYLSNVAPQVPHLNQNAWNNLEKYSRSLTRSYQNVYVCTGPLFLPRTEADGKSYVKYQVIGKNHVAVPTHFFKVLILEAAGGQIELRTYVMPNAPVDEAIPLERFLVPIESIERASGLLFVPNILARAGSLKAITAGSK
In words: High-throughput EndoG screening assay. In kind it is biochemical. Conditions: 20 min; compound 1 μM; read-out: % EndoG activity in the presence of the compound. Here is the method: A reaction mixture was prepared in each well of a white 96-well plate (Costar, Corning, N.Y.) as follows: 0.25 μM Cy5.5-labeled oligonucleotide (described in US provisional patent filed Oct. 19, 2012, Ser. No. 61/716,097) 0.3 mM MgCl2, 10 mM Tris-HCl, pH 7.4, 1 μl DMSO containing 5 or 50 ng of test compound, and nuclease-free water for a total reaction volume of 100 μl. The background (negative control) and uninhibited EndoG samples were measured using DMSO only, or DMSO containing recombinant EndoG (4 μg/ml), respectively. After addition of EndoG, fluorescence intensity was kinetically measured on a Bio-Tek Synergy 4.0 plate reader at 37° C. and mean velocity (mRFU/min) within 20 min was automatically calculated by the plate reader. The background was subtracted prior to the calculation of EndoG activity (%). The percent of EndoG activity was calculated from the mean velocity of a compound divided by the mean velocity of DMSO with recombinant EndoG, and the obtained value multiplied by 100.
For the compound `COc1cc(Cn2c(C)c(C=C3C(=O)NC(=S)NC3=O)c3ccccc32)cc(OC)c1` [PNR-5-96], the remaining activity at 1 µM was 71.5%.

As to `Cc1c(C=C2C(=O)NC(=S)NC2=O)c2ccccc2n1Cc1ccc([N+](=O)[O-])cc1` [PNR-6-17], the remaining activity at 1 µM is 69.8%.

For `CN1C(=O)C(=Cc2cn(C(=O)c3cccc4ccccc34)c3ccc(Cl)cc23)C(=O)N(C)C1=O` [PNR-6-59], the remaining activity at 1 µM was 47.5%.

With `CN1C(=O)C(=Cc2cn(C(=O)c3ccc4ccccc4c3)c3ccc(Cl)cc23)C(=O)N(C)C1=O` [PNR-6-60], the remaining activity at 1 µM was 67.9%.

For the compound `Cc1c(C=C2C(=O)NC(=O)NC2=O)c2ccccc2n1C(=O)c1cccc2ccccc12` [PNR-6-64], the remaining activity at 1 µM turned out to be 71.7%.

As to `Cc1c(C=C2C(=O)NC(=S)NC2=O)c2ccccc2n1C(=O)c1cccc2ccccc12` [PNR-6-65], the remaining activity at 1 µM came out at 65%.

In the case of `Cc1c(C=C2C(=O)NC(=S)NC2=O)c2ccccc2n1C(=O)c1ccc2ccccc2c1` [PNR-6-69], the remaining activity at 1 µM was found to be 31.6%.

For the compound `COc1ccc2c(c1)c(C=C1C(=O)NC(=S)NC1=O)c(C)n2C(=O)c1cccc2ccccc12` [PNR-6-74], the remaining activity at 1 µM turned out to be 63.5%.

`O=C1NC(=S)NC(=O)C1=Cc1cn(Cc2cccc3ccccc23)c2ccccc12` [PNR-6-83]: the remaining activity at 1 µM came out at 16%.

Turning to `COc1ccc2c(c1)c(C=C1C(=O)NC(=O)NC1=O)cn2Cc1cccc2ccccc12` [PNR-6-85], the remaining activity at 1 µM amounted to 52.7%.

For the compound `COc1ccc2c(c1)c(C=C1C(=O)NC(=S)NC1=O)cn2Cc1cccc2ccccc12` [PNR-6-86], the remaining activity at 1 µM was determined as 9.55%.

In the case of `O=C1NC(=O)C(=Cc2cn(Cc3cccc4ccccc34)c3ccc(Cl)cc23)C(=O)N1` [PNR-6-88], the remaining activity at 1 µM is 22.9%.

In the case of `O=C1NC(=S)NC(=O)C1=Cc1cn(Cc2cccc3ccccc23)c2ccc(Cl)cc12` [PNR-6-89], the remaining activity at 1 µM came to 3.5%.

As to `CN1C(=O)C(=Cc2cn(Cc3cccc4ccccc34)c3ccc(Cl)cc23)C(=O)N(C)C1=O` [PNR-6-90], the remaining activity at 1 µM came to 35.9%.

On to `O=C1NC(=O)C(=Cc2cn(Cc3cccc4ccccc34)c3ccc(Br)cc23)C(=O)N1` [PNR-6-91], for which the remaining activity at 1 µM came to 12.7%.

Turning to `O=C1NC(=S)NC(=O)C1=Cc1cn(Cc2cccc3ccccc23)c2ccc(Br)cc12` [PNR-6-92], the remaining activity at 1 µM was determined as 8.9%.

Take `CN1C(=O)C(=Cc2cn(Cc3cccc4ccccc34)c3ccc(Br)cc23)C(=O)N(C)C1=O` [PNR-6-93]: the remaining activity at 1 µM came to 45.8%.

As for `O=C1NC(=S)NC(=O)C1=Cc1cn(Cc2ccc3ccccc3c2)c2ccccc12` [PNR-6-98], the remaining activity at 1 µM was determined as 15.7%.

Consider `CN1C(=O)C(=Cc2cn(Cc3ccc4ccccc4c3)c3ccccc23)C(=O)N(C)C1=O` [PNR-6-99], for which the remaining activity at 1 µM was 71.7%.

As to `O=C1NC(=O)C(=Cc2cn(Cc3ccc4ccccc4c3)c3ccc(Cl)cc23)C(=O)N1` [PNR-7-1], the remaining activity at 1 µM came to 14.8%.

Regarding `O=C1NC(=S)NC(=O)C1=Cc1cn(Cc2ccc3ccccc3c2)c2ccc(Cl)cc12` [PNR-7-2], the remaining activity at 1 µM worked out at 17.8%.

Regarding `CN1C(=O)C(=Cc2cn(Cc3ccc4ccccc4c3)c3ccc(Cl)cc23)C(=O)N(C)C1=O` [PNR-7-3], the remaining activity at 1 µM is 59.1%.

Regarding `COc1ccc2c(c1)c(C=C1C(=O)NC(=O)NC1=O)cn2Cc1ccc2ccccc2c1` [PNR-7-4], the remaining activity at 1 µM was found to be 24.7%.

`COc1ccc2c(c1)c(C=C1C(=O)NC(=S)NC1=O)cn2Cc1ccc2ccccc2c1` [PNR-7-5]: the remaining activity at 1 µM was 13.8%.

On to `O=C1NC(=O)C(=Cc2cn(Cc3ccccc3Br)c3ccccc23)C(=O)N1` [PNR-7-7], for which the remaining activity at 1 µM came out at 14.1%.

As for `O=C1NC(=S)NC(=O)C1=Cc1cn(Cc2ccccc2Br)c2ccccc12` [PNR-7-8], the remaining activity at 1 µM is 58%.

Consider `CN1C(=O)C(=Cc2cn(Cc3cccc(C(F)(F)F)c3)c3ccccc23)C(=O)N(C)C1=O` [PNR-7-16], for which the remaining activity at 1 µM is 17.2%.

Consider `O=C1NC(=O)C(=Cc2cn(Cc3cccc(C(F)(F)F)c3)c3ccc(Cl)cc23)C(=O)N1` [PNR-7-17], for which the remaining activity at 1 µM amounted to 57.1%.

With `O=C1NC(=S)NC(=O)C1=Cc1cn(Cc2cccc(C(F)(F)F)c2)c2ccc(Cl)cc12` [PNR-7-18], the remaining activity at 1 µM stood at 14.1%.

On to `COc1ccc2c(c1)c(C=C1C(=O)NC(=S)NC1=O)cn2Cc1cccc(C(F)(F)F)c1` [PNR-7-21], for which the remaining activity at 1 µM amounted to 28.8%.

On to `Cc1c(C=C2C(=O)NC(=S)NC2=O)c2ccccc2n1Cc1cccc(C(F)(F)F)c1` [PNR-7-24], for which the remaining activity at 1 µM was found to be 73.6%.

Regarding `COc1ccc2c(c1)c(C=C1C(=O)NC(=S)NC1=O)c(C)n2Cc1cccc2ccccc12` [PNR-7-27], the remaining activity at 1 µM was determined as 19.1%.

The next assay concerns the target T2, hpol η (Homo sapiens, UniProt Q9Y253).
T2 construct: human DNA polymerases η (amino acids 1-437); 6x-histidine (N, cleaved yes); GST (N, cleaved yes); made in house; host or cells: Escherichia coli BL21 (DE3)
T2 sequence (Q9Y253 1-437): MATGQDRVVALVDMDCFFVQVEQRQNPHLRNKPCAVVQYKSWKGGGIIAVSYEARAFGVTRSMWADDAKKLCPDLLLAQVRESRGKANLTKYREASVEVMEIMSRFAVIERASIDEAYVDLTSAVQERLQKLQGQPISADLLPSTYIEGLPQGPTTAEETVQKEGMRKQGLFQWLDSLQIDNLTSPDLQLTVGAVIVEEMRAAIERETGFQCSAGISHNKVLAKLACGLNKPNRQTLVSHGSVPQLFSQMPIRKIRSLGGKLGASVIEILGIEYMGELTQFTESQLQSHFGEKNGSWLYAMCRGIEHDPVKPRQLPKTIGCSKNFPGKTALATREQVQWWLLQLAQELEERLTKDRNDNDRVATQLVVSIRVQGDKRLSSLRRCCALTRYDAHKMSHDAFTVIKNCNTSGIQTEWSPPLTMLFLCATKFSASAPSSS
The assay is described as follows: Fluorescence-based DNA polymerase strand-displacement assay.
Conditions: not given
It counts as biochemical. An excerpt: A library of 320 compounds targeted against nucleic acid interacting proteins was screened for inhibition of polymerase activity using an assay that monitors fluorescence from a 5-carboxytetramethylrhodamine (TAMRA) labeled oligonucleotide. In order to prepare the DNA for the experiment, a TAMRA-labeled reporter (or displaced) strand (SEQ ID NO. 4: 5′-TTT TTT TTG C-TAMRA-3′) and unlabeled primer strand (SEQ ID NO. 5: 5′-TCA CCC TCGTAC GAC TCT T-3′) were annealed to a Black Hole Quencher (BHQ)-labeled template strand (SEQ ID NO. 6: 5′BHQ2-GCAAAAAAAAAA GAG TCG TAC GAG GGT GA-3′) in a solution containing 10 mM Tris (pH 8.0), 50 mM NaCl, 2 mM MgCl2, and dH2O. The template (T), primer (P) and displaced strand (D) oligonucleotides were mixed in a 1:1.5:1.5 (T:P:D) molar ratio for annealing. After an incubation period of three minutes at 95° C., the DNA was allowed to slowly cool to room temperature overnight.
The fluorescence-based assay used to screen for polymerase inhibitors measures polymerase-catalyzed displacement of a TAMRA-labeled oligonucleotide (FIG. 1). For the initial screen, the experimental setup included 50 nM hpol η), 50 nM DNA, 6 μM compound, 100 μM dTTP and 1 mM MgCl2. The reactions were performed in 50 mM Tris (pH 8.0) buffer containing 40 mM NaCl, 2 mM dithiothreitol, and 0.01% (v/v) Tween-20. The concentration of dimethyl sulfoxide (DMSO) was 3.5% (v/v) for the initial screen. The enzyme, the compounds (including a DMSO control) and dTTP were combined with the reaction buffer in individual wells of each half-plate and allowed to incubate for 5-10 minutes. The DNA substrate was subsequently added to initiate the reaction and the plate was read immediately using a BioTek SynergyH4 plate reader (λex=525 nm, λem=598 run). The final reaction volume was 200 μL. Fluorescence was monitored for 90 minutes for most reactions. The initial portion of the velocity curve was analyzed by linear regression to calculate an observed rate of product formation. For each data set, eight DMSO control experiments were averaged to obtain our measure of 100% activity. Rates of product formation in the presence of each compound were then divided by the rate of the DMSO control to produce a relative measure of polymerase activity (0 to 1, with 1 being no inhibition).
In order to determine the IC50 value for each enzyme, the fluorescence-based polymerase assay was repeated with increasing concentrations of inhibitor. The conditions varied slightly for each enzyme. With the exception of hpol ι, all IC50 experiments were performed in 50 mM Tris HCl (pH 8.0) buffer containing 1 mM MgCl2, 0.1 mM dTTP, 40 mM NaCl, 2 mM DTT, 0.01% (v/v) Tween-20 and 10% (v/v) DMSO. For experiments with hpol ι, KCl was substituted for NaCl and 0.25 mM MnCl2 was substituted for MgCl2. The concentration of inhibitor was 0, 1, 5, 10, 20, 30, 50, 75 and 100 μM. The enzyme and DNA concentrations were as follows: 10 nM hpol η, 50 nM DNA; 3 nM hpol κ, 60 nM DNA; 50 nM hpol ι, 50 nM DNA; 10 nM Dpo4, 50 nM DNA; 100 nM Dpo1, 50 nM DNA; 50 nM hpol β, 50 nM DNA; 50 nM HIV-1 RT, 50 nM DNA. The percent activity was plotted as a function of the log of inhibitor concentration and fit to a four-parameter logistic model (equation 1) using Prism software (Graph Pad, San Diego, Calif.): […]
By IC50 is commonly meant the concentration at which inhibition is half-maximal. Consider `O=C1NC(=S)NC(=O)C1=Cc1cn(C(=O)c2cccc3ccccc23)c2ccc(Cl)cc12` [ITBA-17], for which the IC50 was 15.8 ± 3.3 µM.

Still in this assay, the particulars now being: 50 μM compound.
As to `O=C1NC(=S)NC(=O)C1=Cc1cn(C(=O)c2cccc3ccccc23)c2ccc(Cl)cc12` [ITBA-17], the “hpol η percent activity relative to the control assay” value is recorded as “most potent inhibitor”.
